Reference: the NIST ThermoML archive (doi:10.1021/je300775u)

Test: xn = mol fraction of the nth substance listed
Conditions: 101 kPa, Liquid; for mass density: Vibrating tube method; for speed of sound: Pulse-echo method

ClC(Cl)(Cl)Br [bromotrichloromethane] + BrCBr
Conditions | mass density, 303.15 K [kg/m3] | mass density, 308.15 K [kg/m3] | mass density, 313.15 K [kg/m3] | speed of sound, 308.15 K [m/s] | speed of sound, 313.15 K [m/s]
x1 = 0.0506 | 2429.69 | 2416.74 | 2403.73 | 919.1 | 906.4
x1 = 0.0993 | 2398.59 | 2385.75 | 2372.87 | 914.8 | 902.2
x1 = 0.1491 | 2367.61 | 2354.94 | 2342.21 | 910.7 | 898.1
x1 = 0.1991 | 2338.13 | 2325.48 | 2312.93 | 907.1 | 894.4
x1 = 0.2473 | 2310.8 | 2298.33 | 2285.84 | 903.7 | 891
x1 = 0.2986 | 2282.77 | 2270.45 | 2258.08 | 900.4 | 887.7
x1 = 0.3465 | 2257.58 | 2245.37 | 2233.11 | 897.6 | 884.8
x1 = 0.3979 | 2231.57 | 2219.48 | 2207.34 | 894.8 | 882
x1 = 0.4468 | 2207.52 | 2195.5 | 2183.5 | 892.4 | 879.5
x1 = 0.4967 | 2184.02 | 2172.16 | 2160.25 | 890.1 | 877.1
x1 = 0.5462 | 2161.9 | 2150.12 | 2138.31 | 888 | 875.1
x1 = 0.5975 | 2139.5 | 2128 | 2116.3 | 886.1 | 873.1
x1 = 0.6479 | 2118.46 | 2106.9 | 2095.25 | 884.4 | 871.4
x1 = 0.6947 | 2099.49 | 2087.96 | 2076.47 | 882.8 | 869.9
x1 = 0.7469 | 2079.21 | 2067.83 | 2056.41 | 881.4 | 868.4
x1 = 0.7959 | 2060.79 | 2049.47 | 2038.17 | 880.2 | 867.1
x1 = 0.8494 | 2041.21 | 2030.02 | 2018.79 | 879 | 865.9
x1 = 0.898 | 2024.04 | 2012.93 | 2001.78 | 878.1 | 865
x1 = 0.9469 | 2007.69 | 1996.65 | 1985.57 | 877.3 | 864.1
x1 = 1 | 1991.2 | 1980.24 | 1969.25 | 876.8 | 863.6
